Laboratory results reported in patent US7544714B2, “Lipid-amino acid conjugates and methods of use” (University of Massachusetts, priority 2004, dated 2009).

Test system: 3T3 L1 fibroblasts
Test: RT-PCR analysis of adipocyte specific transcripts as secondary test of adipocyte differentiation
Assay type: cell-based
Settings: with 10 μg/ml insulin
Experimental: N-arachidonoyl-D-alanine is subjected to the Oil Red O assay, discussed in more detail supra. In the assay, 3T3 L1 fibroblasts are cultured in DMEM supplemented with 10% calf serum. Two days after confluence, cells are treated with 0.1% DMSO (vehicle), 20-100 μM N-arachidonoyl-D-alanine in vehicle, or 1 μM GW347845 (Cobb et al., J. Med. Chem., 41:5055-5069, 1998) in vehicle. Each of the three treatments is administered to the cells with 10 μg/ml of insulin. After seven days of treatment with GW347845 and 10-14 days of treatment with N-arachidonoyl-D-alanine, cells are fixed and stained with Oil Red O. Red staining indicates lipid droplets in the cytoplasm. RT-PCR analysis of expressed genes is performed as a secondary test of adipocyte differentiation. Messenger RNA from fibroblasts is harvested and RT-PCR is performed to amplify adipocyte specific transcripts, e.g., PPARγ2 and aP2, or the transcript of a ubiquitous housekeeping gene, e.g., GAPDH. PCR products are analyzed on 1% agarose gel and stained with ethidium bromide. […] Expression of the housekeeping gene GAPDH is assayed to ensure equal expression in all samples.

[1] = 20-100 μM, 10-14 days of treatment

Row | Structure (SMILES) | PPARγ2 transcript induction relative to vehicle-treated cells (RT-PCR) (1 μM, seven days of treatment) | aP2 transcript induction relative to vehicle-treated cells (RT-PCR) (1 μM, seven days of treatment) | PPARγ2 transcript induction relative to vehicle-treated cells (RT-PCR) [1] | aP2 transcript induction relative to vehicle-treated cells (RT-PCR) [1]
1 | COC(=O)c1ccccc1N[C@@H](Cc1ccc(OCCc2nc(-c3ccccc3)oc2C)cc1)C(=O)O [GW347845] | induced significantly | induced significantly | – | –
2 | CCCCC/C=C\C/C=C\C/C=C\C/C=C\CCCC(=O)N[C@H](C)C(=O)O [N-arachidonoyl-D-alanine] | – | – | induced significantly | induced significantly
